Tested on: 422866-222-R5-J1-PDC spheroid viability
Experiment: Anticancer human tumor 422866-222-R5-J1-PDC patient-derived pancreatic adenocarcinoma cell line growth inhibition [CLK]
Settings: spheroids with HUVEC and MSC; for IC50: curve of first compound; for viability, T/C: stronger effect = lower value
In short: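 Multi-cell-type spheroids combined patient-derived tumor cells with HUVEC endothelial cells and human mesenchymal stem cells. Paired agents were dosed in half-log steps down from about clinical Cmax, or from 10 microM where Cmax was unknown.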

[1] = second compound 0.0316 µM, first compound 0.0316 µM
[2] = second compound 0.0316 µM, first compound 0.1 µM
[3] = second compound 0.0316 µM, first compound 0.316 µM
[4] = second compound 0.0316 µM, first compound 1 µM
[5] = second compound 0.0316 µM, first compound 3.16 µM
[6] = second compound 0.0316 µM, first compound 10 µM
[7] = second compound 0.1 µM, first compound 0.0316 µM
[8] = second compound 0.1 µM, first compound 0.1 µM
[9] = second compound 0.1 µM, first compound 0.316 µM
[10] = second compound 0.1 µM, first compound 1 µM
[11] = second compound 0.1 µM, first compound 3.16 µM
[12] = second compound 0.1 µM, first compound 10 µM
[13] = second compound 0.316 µM, first compound 0.0316 µM
[14] = second compound 0.316 µM, first compound 0.1 µM
[15] = second compound 0.316 µM, first compound 0.316 µM
[16] = second compound 0.316 µM, first compound 1 µM
[17] = second compound 0.316 µM, first compound 3.16 µM
[18] = second compound 0.316 µM, first compound 10 µM
[19] = second compound 1 µM, first compound 0.0316 µM
[20] = second compound 1 µM, first compound 0.1 µM
[21] = second compound 1 µM, first compound 0.316 µM
[22] = second compound 1 µM, first compound 1 µM
[23] = second compound 1 µM, first compound 3.16 µM
[24] = second compound 1 µM, first compound 10 µM
[25] = second compound 3.16 µM, first compound 0.0316 µM
[26] = second compound 3.16 µM, first compound 0.1 µM
[27] = second compound 3.16 µM, first compound 0.316 µM
[28] = second compound 3.16 µM, first compound 1 µM
[29] = second compound 3.16 µM, first compound 3.16 µM
[30] = second compound 3.16 µM, first compound 10 µM
[31] = second compound 10 µM, first compound 0.0316 µM
[32] = second compound 10 µM, first compound 0.1 µM
[33] = second compound 10 µM, first compound 0.316 µM
[34] = second compound 10 µM, first compound 1 µM
[35] = second compound 10 µM, first compound 3.16 µM
[36] = second compound 10 µM, first compound 10 µM
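Note: spheroids exposed to agents for seven days before readout.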

Structure (SMILES): CC1(C)CCC(CN2CCN(c3ccc(C(=O)NS(=O)(=O)c4ccc(NCC5CCOCC5)c([N+](=O)[O-])c4)c(Oc4cnc5[nH]ccc5c4)c3)CC2)=C(c2ccc(Cl)cc2)C1 + CN1CCN(c2cc(C(=O)Nc3cc4cc(-c5cnn(C)c5)ccc4cn3)ccn2)CC1
- IC50 (second compound 0.0316 µM): > 10000 nM
- IC50 (second compound 0.1 µM): > 10000 nM
- IC50 (second compound 0.316 µM): 7960 nM
- IC50 (second compound 1 µM): < 31.6 nM
- IC50 (second compound 3.16 µM): < 31.6 nM
- IC50 (second compound 10 µM): < 31.6 nM
- viability, T/C [1]: 105%
- viability, T/C [2]: 104%
- viability, T/C [3]: 101%
- viability, T/C [4]: 115%
- viability, T/C [5]: 113%
- viability, T/C [6]: 69.3%
- viability, T/C [7]: 111%
- viability, T/C [8]: 117%
- viability, T/C [9]: 105%
- viability, T/C [10]: 109%
- viability, T/C [11]: 95.8%
- viability, T/C [12]: 58.3%
- viability, T/C [13]: 89.2%
- viability, T/C [14]: 107%
- viability, T/C [15]: 96.5%
- viability, T/C [16]: 91.2%
- viability, T/C [17]: 91.9%
- viability, T/C [18]: 39.6%
- viability, T/C [19]: 26.1%
- viability, T/C [20]: 26.1%
- viability, T/C [21]: 22.1%
- viability, T/C [22]: 27.5%
- viability, T/C [23]: 25.1%
- viability, T/C [24]: 12.1%
- viability, T/C [25]: 11.2%
- viability, T/C [26]: 10.1%
- viability, T/C [27]: 8.93%
- viability, T/C [28]: 9.29%
- viability, T/C [29]: 8.57%
- viability, T/C [30]: 0.67%
- viability, T/C [31]: 3.46%
- viability, T/C [32]: 3.09%
- viability, T/C [33]: 2.86%
- viability, T/C [34]: 1.74%
- viability, T/C [35]: 2.12%
- viability, T/C [36]: 1.57%

Structure (SMILES): CC1COCCN1c1cc(C2(S(C)(=N)=O)CC2)nc(-c2ccnc3[nH]ccc23)n1 (stereo unspecified) + CN1CCN(c2cc(C(=O)Nc3cc4cc(-c5cnn(C)c5)ccc4cn3)ccn2)CC1
- IC50 (second compound 0.0316 µM): > 10000 nM
- IC50 (second compound 0.1 µM): > 10000 nM
- IC50 (second compound 0.316 µM): > 10000 nM
- IC50 (second compound 1 µM): < 31.6 nM
- IC50 (second compound 3.16 µM): < 31.6 nM
- IC50 (second compound 10 µM): < 31.6 nM
- viability, T/C [1]: 112%
- viability, T/C [2]: 104%
- viability, T/C [3]: 93.6%
- viability, T/C [4]: 89.3%
- viability, T/C [5]: 56%
- viability, T/C [6]: 55.6%
- viability, T/C [7]: 115%
- viability, T/C [8]: 95.7%
- viability, T/C [9]: 113%
- viability, T/C [10]: 74.3%
- viability, T/C [11]: 60.2%
- viability, T/C [12]: 61.2%
- viability, T/C [13]: 95%
- viability, T/C [14]: 85.8%
- viability, T/C [15]: 79.9%
- viability, T/C [16]: 73.2%
- viability, T/C [17]: 61.2%
- viability, T/C [18]: 56.2%
- viability, T/C [19]: 30.9%
- viability, T/C [20]: 26.6%
- viability, T/C [21]: 27.7%
- viability, T/C [22]: 21.6%
- viability, T/C [23]: 23.8%
- viability, T/C [24]: 17.5%
- viability, T/C [25]: 10.7%
- viability, T/C [26]: 10.4%
- viability, T/C [27]: 11.6%
- viability, T/C [28]: 10.4%
- viability, T/C [29]: 10.6%
- viability, T/C [30]: 10.2%
- viability, T/C [31]: 2.45%
- viability, T/C [32]: 2.21%
- viability, T/C [33]: 1.54%
- viability, T/C [34]: 2.27%
- viability, T/C [35]: 4.47%
- viability, T/C [36]: 2.46%

Structure (SMILES): NC(=O)C(=Cn1cnc(-c2cc(C(F)(F)F)cc(C(F)(F)F)c2)n1)c1cncnc1 + CN1CCN(c2cc(C(=O)Nc3cc4cc(-c5cnn(C)c5)ccc4cn3)ccn2)CC1
- IC50 (second compound 0.0316 µM): > 3000 nM
- IC50 (second compound 0.1 µM): > 3000 nM
- IC50 (second compound 0.316 µM): 55.8 nM
- IC50 (second compound 1 µM): < 9.49 nM
- IC50 (second compound 3.16 µM): < 9.49 nM
- IC50 (second compound 10 µM): < 9.49 nM
- viability, T/C (second compound 0.0316 µM, first compound 0.00949 µM): 123%
- viability, T/C (second compound 0.0316 µM, first compound 0.03 µM): 117%
- viability, T/C (second compound 0.0316 µM, first compound 0.0949 µM): 80%
- viability, T/C (second compound 0.0316 µM, first compound 0.3 µM): 48.4%
- viability, T/C (second compound 0.0316 µM, first compound 0.949 µM): 66.3%
- viability, T/C (second compound 0.0316 µM, first compound 3 µM): 78.4%
- viability, T/C (second compound 0.1 µM, first compound 0.00949 µM): 110%
- viability, T/C (second compound 0.1 µM, first compound 0.03 µM): 94.6%
- viability, T/C (second compound 0.1 µM, first compound 0.0949 µM): 73.8%
- viability, T/C (second compound 0.1 µM, first compound 0.3 µM): 32.1%
- viability, T/C (second compound 0.1 µM, first compound 0.949 µM): 55.6%
- viability, T/C (second compound 0.1 µM, first compound 3 µM): 67.4%
- viability, T/C (second compound 0.316 µM, first compound 0.00949 µM): 66.5%
- viability, T/C (second compound 0.316 µM, first compound 0.03 µM): 63.8%
- viability, T/C (second compound 0.316 µM, first compound 0.0949 µM): 38.2%
- viability, T/C (second compound 0.316 µM, first compound 0.3 µM): 21.9%
- viability, T/C (second compound 0.316 µM, first compound 0.949 µM): 21%
- viability, T/C (second compound 0.316 µM, first compound 3 µM): 20.9%
- viability, T/C (second compound 1 µM, first compound 0.00949 µM): 15.6%
- viability, T/C (second compound 1 µM, first compound 0.03 µM): 14.2%
- viability, T/C (second compound 1 µM, first compound 0.0949 µM): 15.1%
- viability, T/C (second compound 1 µM, first compound 0.3 µM): 22.4%
- viability, T/C (second compound 1 µM, first compound 0.949 µM): 22.9%
- viability, T/C (second compound 1 µM, first compound 3 µM): 14.5%
- viability, T/C (second compound 3.16 µM, first compound 0.00949 µM): 12.9%
- viability, T/C (second compound 3.16 µM, first compound 0.03 µM): 15.1%
- viability, T/C (second compound 3.16 µM, first compound 0.0949 µM): 18.3%
- viability, T/C (second compound 3.16 µM, first compound 0.3 µM): 18.9%
- viability, T/C (second compound 3.16 µM, first compound 0.949 µM): 19.9%
- viability, T/C (second compound 3.16 µM, first compound 3 µM): 18.5%
- viability, T/C (second compound 10 µM, first compound 0.00949 µM): 2.84%
- viability, T/C (second compound 10 µM, first compound 0.03 µM): 1.47%
- viability, T/C (second compound 10 µM, first compound 0.0949 µM): 2.11%
- viability, T/C (second compound 10 µM, first compound 0.3 µM): 1.91%
- viability, T/C (second compound 10 µM, first compound 0.949 µM): 6.33%
- viability, T/C (second compound 10 µM, first compound 3 µM): 9.39%

Source: PubChem BioAssay AID2060603 (Molecular Pharmacology Branch, DTP, NCI, 2025)
